# Results reported in US20250152559A1, “METHODS FOR TREATING MYC-AMPLIFIED CANCER” (The Governing Council of the University of Toronto, priority 2023, published 2025).
# What was measured:
# SU_MB002 = experiment: PrestoBlue cell viability, 72-hour treatment, limiting dilution; assay type: cell-based, human; conditions: SU_MB002, media with uridine hydrochloride (100 μM)
# Method: SU_MB002, NSC194, NSC197 and NSC201FT, MBT375 and MED411FHTC were maintained in Neurocult Complete (NCC) media (Stem Cell Technologies; catalogue #05751). D425 and D458 were maintained in Dulbecco's […] (DMEM) containing 10% fetal bovine serum (FBS). HD-MB03 were maintained in NCC containing 10% FBS. All cell lines were conditioned in NCC for a minimum of 48 hours before experimentation. SU_MB002 and HD-MB03 G3MB-MYC PDOX were obtained from collaborators as kind gifts and are frequently passaged in vivo. SU_MB002, a treatment-refractory group 3 MB acquired at autopsy was received from Dr. Yoon-Jae Cho. Dr. Till Milde provided HD-MB03, a treatment-naïve group 3 MBs. ICB1299 group 4 MB cells were obtained as a gift from Silvia Marino's laboratory^62. MBT375 was established in-house from a surgical specimen of group 4 MB, which was engrafted in the cerebellum of mice for serial propagation. Nanostring genotyping was used to confirm group 4 medulloblastoma identity. MED411FHTC PDOX were procured from Dr. Olson's brain tumor research lab. D425 and D458 were obtained from the ATCC. All cell lines were fingerprint verified by short tandem repeat (STR) profiling. NSC194, NSC197 and NSC201FT were derived in-house from donor fetal brain tissues^63.
# For assessment of viability, cells were seeded into 96-well plates at a density of 1,000 cells per well. Viability was measured by adding PrestoBlue™ diluted 1:10 (ThermoFisher Scientific; Catalogue #A13261) followed by a 4-hour incubation. Relative fluorescence intensity was determined via background correction. To assess tumorsphere forming capacity, cells were seeded at a low density (200 cells per well) and incubated for 3-5 days. Tumorspheres were manually counted thereafter.
# [1] = test system: O-GlcNAc-conjugated proteins and c-Myc in HD-MB03 and SU_MB002 tumor cells; experiment: Western blotting of O-GlcNAc-linked proteins and c-Myc; assay type: cell-based, human; conditions: HD-MB03 and SU_MB002, BAY vs vehicle
# Source text: Uridine metabolite depletion may impact not only the macromolecular demands of the rapidly cycling cellular phenotype identified through scRNA-seq analysis (inducing cell cycle arrest), but also the potentiation of oncogenic signaling programs. […] To determine whether reduced UDP-GlcNAc abundance influences O-GlcNAcylation of proteins and/or expression of c-Myc at the protein level, the abundance of β-O-glycosidic-linked proteins (Ser and Thr residues) and the expression of c-Myc protein in HD-MB03 and SU_MB002 tumor cells treated with BAY or its vehicle, were measured using Western blotting.
# Protein lysates were isolated from approximately 500,000-1,000,000 cells. Pellets were rinsed with PBS and then lysed in RIPA buffer containing HALT™ protease inhibitor cocktail (ThermoFisher). Protein concentrations were quantified using the Bradford Assay (BioRad). Protein size was resolved via SDS-PAGE and then transferred to PVDF for immunoblotting. […] Quantification was performed by analyzing mean pixel density of each band and then normalizing to GAPDH loading control. […]
# HD-MB03 PDOX = experiment: Orthotopic PDOX model, IVIS bioluminescence and survival; assay type: in vivo, mice; conditions: HD-MB03, regimens R1 and R2 vs vehicle
# Method: The treatment-naïve, patient-derived cell line, HD-MB03, was orthotopically engrafted into immunocompromised mice. Four days later, tumors were readily detectible via bioluminescence imaging. Thereafter mice were randomized into three cohorts, which were treated with either the vehicle or one of two BAY treatment regimens (R1 and R2; FIG. 5B).
# PDOX were generated by engrafting 25,000 tumor cells (both SU_MB002 and HD-MB03 cell lines), suspended in 5 μL PBS, directly into the mouse cerebrum. Flank xenografts were generated by engrafting 2,000,000 tumor cells suspended in a 100 μL solution of PBS/Matrigel® (1:1 v/v). For preclinical studies, cells were engineered to express enhanced firefly luciferase. […] Flank tumors were isolated at matched time points and formalin fixed for 48 hours, paraffin embedded (FFPE) and sectioned for follow-up analysis. Tumor area was manually measured in H&E-stained sections of FFPE tissues using ImageJ.
# For imaging via the in vivo imaging system (IVIS), mice were sedated with isoflurane gas and then administered luciferin substrate (150 mg/kg in PBS) via subcutaneous injection. After 10 minutes, bioluminescent signal (photons per second; p/s) was quantified using Living Image software.
structure (smiles),measurement,setting,value
CCn1c(CO)nn(-c2cc(O[C@@H](C)C(F)(F)F)c(C(=O)Nc3c(F)cccc3Cl)cc2F)c1=O [BAY2402234],tumor cell proliferation and viability with uridine supplementation,SU_MB002,rescues
same,abundance of O-GlcNAc-conjugated proteins,[1],global reduction
same,c-Myc protein expression,[1],significant reduction
same,overall survival,HD-MB03 PDOX,prolonged overall survival
same,PDOX growth (IVIS bioluminescence),HD-MB03 PDOX; oral gavage,significantly attenuated
